Structures can show the parent of a compound that is named as a salt. Where two headings read alike, the source gives them in different places.
Columns and labels:
[1] = biological target: neuronal nicotinic cholinergic channel receptor; assay: [3H]-cytisine binding to neuronal nicotinic cholinergic channel receptors, crude synaptic membranes from whole rat brain
Method: Binding of [^3 H]-cytisine ([^3 H]-CYT) to nicotinic receptors was accomplished using crude synaptic membrane preparations from whole rat brain (Pabreza et al., Molecular Pharmacol., 1990, 39:9). Washed membranes were stored at -80° C. prior to use. Frozen aliquots were slowly thawed and resuspended in 20 volumes of buffer (containing: 120 mM NaCl, 5 mM KCl, 2 mM MgCl2, 2 mM CaCl2 and 50 mM Tris-Cl, pH 7.4 @4° C.). After centrifuging at 20,000×g for 15 minutes, the pellets were resuspended in 30 volumes of buffer. Homogenate (containing 125-150 μg protein) was added to triplicate tubes containing concentrations of test compound and [^3 H]-CYT (1.25 nM) in a final volume of 500 μL. Samples were incubated for 60 minutes at 4° C., then rapidly filtered through Whatman GF/B filters presoaked in 0.5% polyethylimine using 3×4 mL of ice-cold buffer. The filters are counted in 4 mL of Ecolume® (ICN).

Male CD-1 mice = assay: Analgesia testing, automated hot-plate (55° C.); assay type: in vivo, mouse; details: latency to tenth jump; morphine at 12, Example 3 at 19 umol/kg
Method: Analgesia was measured using an automated hot-plate analgesia monitor (model #AHP16AN, Omnitech Electronics, Inc., Columbus, Ohio). The temperature of the hot-plate was maintained at 55° C. Male CD-1 mice (Charles River, Portage, Mich.) weighing 30 to 35 g were used for all testing. Mice were placed on the hot-plate and the latency to jump (i.e., first 10 jumps) was recorded. Mice were removed from the apparatus either after ten jumps were made or a maximally-allowed time of 240 sec elapsed, whichever occurred first. The design of the apparatus allowed for testing of several animals (e.g., 8) at once. The latency (sec) until the tenth jump was used for statistical analysis. Data (Table 2) were statistically evaluated with ANOVA (StatView II™ program, Abacus Concepts, Inc., Berkeley, Calif.) and compared to the reference standard analgesic morphine.

male Wistar rats = assay: Elevated plus-maze, rat (anxiolytic activity); assay type: in vivo; details: doses in brackets; time in open arms
Description: (§1) The elevated plus-maze is a conflict test that probes anxiolytic activity of test compounds (Lister, Psychopharmacology, 1987, 92:180). It is based on the fact that exposure of an animal to an elevated open arm leads to an avoidance response considerably stronger than that evoked by exposure to an enclosed arm.
The same protocol was applied in rats (male Wistar strain), but a larger maze was used (open arms 50×10 cm, enclosed arms 50×10×40 cm) raised 50 cm above the floor.

CD1 mice = assay: Elevated plus-maze, mouse (anxiolytic activity); assay type: in vivo; details: for Mouse EPM, improvement in performance at the dose range tested: doses in brackets, time in open arms, 5 min test
Description: as §1
The apparatus required to perform this test in mice is made of plywood and consists of two open arms (17×8 cm) and two enclosed arms (17×8×15 cm) extending from a central platform (8×8 cm). It is mounted on a plywood base rising 39 cm above the floor. Mice are released on the central platform and the time spent in the open and enclosed arms is recorded during a 5 minute test period. The test compounds were administered to CD1 mice 15 minutes before the test.

parietotemporal cortex = parietotemporal cortex of humans; cited from earlier work
[2] = tested on: cortical muscarinic receptors; details: cited from earlier work
[3] = tested on: cardiac muscarinic receptors; details: cited from earlier work
nicotinic receptors = details: chronic nicotine administration; cited from earlier work
[4] = cited from earlier work
rats = details: acutely- and chronically-administered, rats incl. aged; cited from earlier work
[5] = in vivo; cited from earlier work
cigarette smokers = details: double-blind studies; cited from earlier work
[6] = [3H]-cytisine (1.25 nM), whole rat brain membranes, 4° C., 60 min

SMILES	Ki [1, 6]	also measured
CN1CCC[C@H]1COc1ccc(Cl)c(Cl)c1 [Example 16, 2(S)-(3,4-Dichlorophenoxymethyl)-1-methylpyrrolidine hydrochloride]	112 nM	–
O=[N+]([O-])c1cccc(OC[C@@H]2CCN2)c1 [Example 22, 2(S)-(3-(nitro)phenoxymethyl)azetidine methanesulfonate]	6.8 nM	–
CN1CCC[C@@H]1COc1cccc([N+](=O)[O-])c1 [Example 4, (R)-1-Methyl-2-(3-(nitro)phenoxymethyl)pyrrolidine]	132 nM	–
Fc1cc(F)cc(OC[C@@H]2CCCN2)c1 [Example 7, 2(S)-(3,5-Difluorophenoxymethyl)pyrrolidine hydrochloride]	22.3 nM	–
CN1CC[C@@H]1COc1cccc([N+](=O)[O-])c1 [Example 23, (R)-1-methyl-2-(3-(nitro)phenoxymethyl)azetidine hydrochloride]	29 nM	–
N#Cc1cccc(OC[C@@H]2CCCN2)c1 [Example 18, (S)-2-(3-cyanophenoxymethyl)pyrrolidine hydrochloride]	18 nM	–
CC(=O)Nc1cccc(OC[C@@H]2CCCN2)c1 [Example 17, (S)-2-(3-(acetamido)phenoxymethyl)pyrrolidine hydrochloride]	142 nM	–
CN1CC[C@]23c4c5ccc(O)c4O[C@H]2[C@@H](O)C=C[C@H]3[C@H]1C5 [Morphine, reference compound]	–	Percent change from saline (Male CD-1 mice): 257%
Fc1cccc(OC[C@@H]2CCCN2)c1 [Example 5, 2(S)-(3-Fluorophenoxymethyl)-pyrrolidine hydrochloride]	17.2 nM	–
CN1CCC[C@H]1COc1cccc(Cl)c1 [Example 15, 2(S)-(3-Chlorophenoxymethyl)-1-methylpyrrolidine hydrochloride]	37.7 nM	–
CN1CCC[C@H]1COc1cccc([N+](=O)[O-])c1 [Example 2, 1-Methyl-2(S)-(3-(nitro)phenoxymethyl)pyrrolidine hydrochloride]	9 nM	–
CN1CCC[C@H]1COc1cccc(C#N)c1 [Example 19, (S)-2-(3-cyanophenoxymethyl)-1-methylpyrrolidine hydrochloride]	64 nM	–
Fc1cccc(OC[C@H]2CCCN2)c1 [Example 9, 2(R)-(3-Fluorophenoxymethyl)-pyrrolidine hydrochloride]	11.6 nM	–
CN1CCC[C@H]1COc1cccc(F)c1F [Example 12, 2(S)-(2,3-Difluorophenoxymethyl)-1-methylpyrrolidine hydrochloride]	81.4 nM	–
c1ccc(OC[C@@H]2CCCN2)cc1 [Example 21, 2(S)-(phenoxymethyl)pyrrolidine hydrochloride]	108 nM	–
CN1CCC[C@@H]1COc1cccc(F)c1 [Example 10, 2(R)-(3-Fluorophenoxymethyl)-1-methylpyrrolidine hydrochloride]	90.7 nM	–
Fc1ccc(OC[C@@H]2CCCN2)cc1F [Example 13, 2(S)-(3,4-Difluorophenoxymethyl)pyrrolidine hydrochloride]	17.5 nM	–
Cl.O=[N+]([O-])c1cccc(OC[C@@H]2CCCN2)c1 [Example 1, 2(S)-(3-(Nitro)phenoxymethyl)pyrrolidine hydrochloride]	2.9 nM	Rat EPM, improvement in performance at the dose range tested (male Wistar rats): significant [0.19, 6.2]; Mouse EPM, improvement in performance at the dose range tested (CD1 mice): significant [0.62-1.9]
CNC1(C)C2CCC(C2)C1(C)C (stereo not drawn) [mecamylamine]	–	Effect on resting cortical perfusion (parietotemporal cortex): reduces resting cortical perfusion
CCN1C(=O)CC2(CCN(C)CC2)C1=O [RS-86]	–	Agonism at cortical muscarinic receptors [2]: partial agonist; Potency and selectivity for CNS receptors [2]: poor potency and lack of selectivity for CNS receptors; Agonism at cardiac muscarinic receptors [3]: full agonist
CN1CCCC1c1cccnc1 (single isomer, unassigned; (-)) [(-)-nicotine, reference compound]	–	Rat EPM, improvement in performance at the dose range tested (male Wistar rats): significant [1.9]; Increase in time spent in the open arms of the maze vs saline (CD1 mice; 0.62 and 1.9 μmol/kg, p<0.05, 15 minutes before test): significant increase; Mouse EPM, improvement in performance at the dose range tested (CD1 mice): significant [0.19-0.62]; Ki [1]: […]
CN1CCC[C@H]1COc1ccc(F)c(F)c1 [Example 14, 2(S)-(3,4-Difluorophenoxymethyl)-1-methylpyrrolidine hydrochloride]	18 nM	–
Fc1cccc(OC[C@@H]2CCCN2)c1F [Example 11, 2(S)-(2,3-Difluorophenoxymethyl)pyrrolidine hydrochloride]	74.3 nM	–
CN1CCC[C@H]1COc1cccc(F)c1 [Example 6, 2(S)-(3-Fluorophenoxymethyl)-1-methyl-pyrrolidine hydrochloride]	5.1 nM	–
CN1CCC[C@H]1COc1cc(F)cc(F)c1 [Example 8, 2(S)-(3,5-Difluorophenoxymethyl)-1-methyl-pyrrolidine hydrochloride]	15.7 nM	–
CN1CCC[C@H]1c1cccnc1 [nicotine]	–	Up-regulation of the number of receptors (nicotinic receptors): 50-100%; Oral bioavailability [4]: poor oral bioavailability; Effect on cognitive function (rats): enhances cognitive function in rats; Anxiolytic properties [5]: anxiolytic properties; Suppressing or preventing signs and symptoms of withdrawal vs placebo (cigarette smokers): far superior to a placebo
Cl.O=[N+]([O-])c1cccc(OC[C@H]2CCCN2)c1 [Example 3, 2(R)-(3-(nitro)phenoxymethyl)pyrrolidine hydrochloride]	2.5 nM	Percent change from saline (Male CD-1 mice): 60.7%

Source: patent US5472958A, “2-((nitro)phenoxymethyl) heterocyclic compounds that enhance cognitive function” (Abbott Laboratories, priority 1994, dated 1995)
